From patent US5134137A, “Cephalosporin antibiotics” (The Upjohn Company, priority 1990, dated 1992)
Converted amounts (≈) assume the structure as drawn. Where two headings read alike, the source gives them in different places.

Key:
Escherichia coli = test: MIC, agar dilution, Escherichia coli; type: cell-based; conditions: Escherichia coli, read-out: MIC
Summary of the method: (§1)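 Each organism receives an inoculum of approx. 10^3–10^4 CFU, taken from a 5% CO2 BHI subculture standardised to 0.5 McFarland and diluted 1:20. It is spotted on Mueller-Hinton agar containing the compound, then incubated for 16–18 h at 37 °C with CO2.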

Streptococcus bovis = test: MIC, agar dilution, Streptococcus bovis; type: cell-based; conditions: Streptococcus equinus; strain UC6281; read-out: MIC
Summary of the method: as §1

Pasteurella hemolytica = test: MIC (minimum inhibitory concentration), agar dilution, Pasteurella hemolytica; type: cell-based; conditions: Pasteurella, read-out: MIC
Summary of the method: as §1

P. hemolytica = test: Systemic infection model in mice, ED50, P. hemolytica; type: in vivo; conditions: Mus musculus, sc, 144 h, 50% survival six days post infection, per day, read-out: ED50 (95% confidence limits)
Procedure: Experimental Infections and Antitiotic Treatment (for ED50 in mice tests).
Mice are infected and treated with the test antibiotic compound according to procedures described previously [Yancey, Jr., R. J. et at. supra].
The test antibiotic compound is administered subcutaneously immediately following infection, then at 24 hours and 48 hours post infection. The medium effective dose (ED50) number is determined for all infections. The ED50 value is defined as the calculated concentration of the test antibiotic compound in mg. of compound per kilogram of mouse body weight per day at which 50% of the animals survived six days post infection.

Strep. faecalis = test: MIC, agar dilution, Strep. faecalis; type: cell-based; conditions: Enterococcus faecalis
Procedure: Stock solution of each test antibiotic compound were prepared to have a concentration of 2 mg. of the test compound per milliliter in sterile water of 0.1M ammonium acetate solution. The amount of each compound used was adjusted for base compound activity as calculated from the purity data for the selected batch of compound.
The dilution procedure described by Washington and Sutter [Manual of Clinical Microbiology, 3rd, Edit. (Lennett, E. H. et al, Eds.), pp. 453-458 (1980), American Society for Microbiology, Washington, D.C.] was modified so that serial concentrations of 128 to 0.0625 microgram/ml. in sterile water was obtained. Then 1.5 ml. aliquots of these test antibiotic dilution mixtures are added to 13.5 molten (50° C.) Mueller-Hinton agar. Each resulting mixture is poured into 15×100 mm, sterile Petri plates and allowed to dry at room temperature overnight.
Test bacterial cultures are maintained at -70° C. on glass beads. [See R. J. Yancey, Jr. et al, Amer. Jr. of Vet. Research, 48, No. 7, pp. 1050-1053, (1987)]. At least one bacteria-laden bead per culture is dropped into one ml. of brain heart infusion (BHI) broth for overnight culture at 37° C. in 5% V/V carbon dioxide in air atmosphere.
On the data of assay, 2 to 8 drops of the bacterial broth cultures are transferred to fresh BHI broth (1 ml.) and the mixture is incubated for 4 to 6 hours at 37° C. in a 5% V/V carbon dioxide in air atmosphere. The resulting cultures are then diluted to match a 0.5 MacFarland standard and further diluted 1:20 V/V with sterile saline solution.
A 0.001 ml. drop of the resulting mixture, containing approximately 10^3 to 10^4 colony forming units (CFU) of each test bacteria organism, is dispensed onto the surface of the test antibiotic compound test plates with a Steer's type replicator. The resulting innoculated plates are incubated 16 to 18 hours at 37° C. with a carbon dioxide atmosphere.

Salmonella choleraesuis = test: MIC, agar dilution, Salmonella choleraesuis; type: cell-based; conditions: Salmonella enterica, read-out: MIC
Summary of the method: as §1

Streptococcus uberis = test: MIC, agar dilution, Streptococcus uberis; type: cell-based; conditions: Streptococcus uberis, read-out: MIC
Summary of the method: as §1

Salmonella typhimurium = test: MIC, agar dilution, Salmonella typhimurium; type: cell-based; conditions: Salmonella enterica, read-out: MIC
Summary of the method: as §1

Streptococcus suis = test: MIC, agar dilution, Streptococcus suis; type: cell-based
Summary of the method: as §1

Pseudomonas aeruginosa = test: MIC, agar dilution, Pseudomonas aeruginosa; type: cell-based; conditions: Pseudomonas aeruginosa; strain ATCC27853; read-out: MIC
Summary of the method: as §1

Staphylococcus aureus = test: MIC, agar dilution, Staphylococcus aureus; type: cell-based; conditions: Staphylococcus aureus, read-out: MIC
Summary of the method: as §1

[1] = strain UC6531, subcutaneous, 0, 24, 48 hours post infection
[2] = strain UC6532, lactamase producing, subcutaneous, 0, 24, 48 hours post infection
[3] = CHOLERAESUIS / UC6073, strain UC6073
[4] = CHOLERAESUIS / UC6077, strain UC6077
[5] = TYPHIMURIUM / UC6162, strain UC6162
[6] = TYPHIMURIUM / UC6164, strain UC6164
[7] = Streptococcus suis, strain 538-2, read-out: MIC

CO/N=C(\C(=O)N[C@@H]1C(=O)N2C(C(=O)O)=C(CSC(=O)c3ccco3)CS[C@H]12)c1csc(N)n1 [ceftiofur, 7-[2-(amino-1,3-thiazol-4-yl)-2-(methoxyimino)acetamido]-3-[(fur-2-ylcarbonyl)thiomethyl]-3-cephem-4-carboxylic acid, reference compound]
MIC (Escherichia coli; strain ATCC25922): 0.13 µg/mL (≈ 0.248 µM)
MIC (Escherichia coli; strain P75-1): 0.13 µg/mL (≈ 0.248 µM)
MIC (Escherichia coli; strain UC3784): 0.13 µg/mL (≈ 0.248 µM)
MIC (Escherichia coli; strain UC6720): 0.13 µg/mL (≈ 0.248 µM)
MIC (Streptococcus bovis): ≤ 0.06 µg/mL
MIC (Pasteurella hemolytica; strain B77-19): ≤ 0.06 µg/mL
MIC (Pasteurella hemolytica; strain UC6531): ≤ 0.06 µg/mL
MIC (Pasteurella hemolytica; strain UC6532): ≤ 0.06 µg/mL
ED50 (P. hemolytica; [1]): 0.8 mg/kg
ED50 (P. hemolytica; [2]): 0.9 mg/kg
MIC (Strep. faecalis; strain ATCC29212): 32 µg/mL (≈ 61.1 µM)
MIC (Strep. faecalis; strain UC241): > 32 µg/mL
MIC (Strep. faecalis; strain UC694): > 32 µg/mL
MIC (Salmonella choleraesuis; [3]): 1 µg/mL (≈ 1.91 µM)
MIC (Salmonella choleraesuis; [4]): 2 µg/mL (≈ 3.82 µM)
MIC (Streptococcus uberis; strain UC3946): ≤ 0.06 µg/mL
MIC (Streptococcus uberis; strain UC6159): 0.25 µg/mL (≈ 0.477 µM)
MIC (Salmonella typhimurium; [5]): 0.25 µg/mL (≈ 0.477 µM)
MIC (Salmonella typhimurium; [6]): 0.25 µg/mL (≈ 0.477 µM)
MIC (Streptococcus suis; [7]): ≤ 0.06 µg/mL
MIC (Streptococcus suis; strain 650-2): ≤ 0.06 µg/mL
MIC (Pseudomonas aeruginosa): 32 µg/mL (≈ 61.1 µM)
MIC (Staphylococcus aureus; strain ATCC25923): 0.25 µg/mL (≈ 0.477 µM)
MIC (Staphylococcus aureus; strain UC6093): 1 µg/mL (≈ 1.91 µM)
MIC (Staphylococcus aureus; strain UC6097): 0.5 µg/mL (≈ 0.955 µM)
MIC (Staphylococcus aureus; strain UC6688): 32 µg/mL (≈ 61.1 µM)
MIC (Staphylococcus aureus; strain UC9201): 1 µg/mL (≈ 1.91 µM)

CO/N=C(\C(=O)N[C@@H]1C(=O)N2C(C(=O)O)=C(CS)CS[C@H]12)c1csc(N)n1 [Formula III compound, 3-mercaptomethyl-7β-[2-(2-amino-1,3-thiazol-4-yl)-(Z)-2-(methoxyimino)acetamido]ceph-3-em-4-carboxylic acid]
MIC (Escherichia coli; strain ATCC25922): 0.5 µg/mL
MIC (Escherichia coli; strain P75-1): 0.5 µg/mL
MIC (Escherichia coli; strain UC3784): 0.5 µg/mL
MIC (Escherichia coli; strain UC6720): 0.5 µg/mL
MIC (Streptococcus bovis): ≤ 0.06 µg/mL
MIC (Pasteurella hemolytica; strain B77-19): ≤ 0.06 µg/mL
MIC (Pasteurella hemolytica; strain UC6531): ≤ 0.06 µg/mL
MIC (Pasteurella hemolytica; strain UC6532): ≤ 0.06 µg/mL
ED50 (P. hemolytica; [1]): 0.8 mg/kg
ED50 (P. hemolytica; [2]): 0.8 mg/kg
MIC (Strep. faecalis; strain ATCC29212): > 32 µg/mL
MIC (Strep. faecalis; strain UC241): > 32 µg/mL
MIC (Strep. faecalis; strain UC694): > 32 µg/mL
MIC (Salmonella choleraesuis; [3]): 2 µg/mL
MIC (Salmonella choleraesuis; [4]): 1 µg/mL
MIC (Streptococcus uberis; strain UC3946): 0.25 µg/mL
MIC (Streptococcus uberis; strain UC6159): 32 µg/mL
MIC (Salmonella typhimurium; [5]): 0.5 µg/mL
MIC (Salmonella typhimurium; [6]): 0.5 µg/mL
MIC (Streptococcus suis; [7]): ≤ 0.06 µg/mL
MIC (Streptococcus suis; strain 650-2): ≤ 0.06 µg/mL
MIC (Pseudomonas aeruginosa): > 32 µg/mL
MIC (Staphylococcus aureus; strain ATCC25923): 16 µg/mL
MIC (Staphylococcus aureus; strain UC6093): 16 µg/mL
MIC (Staphylococcus aureus; strain UC6097): 16 µg/mL
MIC (Staphylococcus aureus; strain UC6688): > 32 µg/mL
MIC (Staphylococcus aureus; strain UC9201): 16 µg/mL

CO/N=C(\C(=O)N[C@@H]1C(=O)N2C(C(=O)O)=C(CO)CS[C@H]12)c1csc(N)n1 [desacetyl cefotoxime, 7-[2-(2-amino-1,3-thiazol-4-yl)-(syn)-2-methoxyiminoacetamido]-3-hydroxymethylceph-3-em-4-carboxylic acid, reference compound]
MIC (Escherichia coli; strain ATCC25922): 0.25 µg/mL (≈ 0.605 µM)
MIC (Escherichia coli; strain P75-1): 0.25 µg/mL (≈ 0.605 µM)
MIC (Escherichia coli; strain UC3784): 0.25 µg/mL (≈ 0.605 µM)
MIC (Escherichia coli; strain UC6720): 0.25 µg/mL (≈ 0.605 µM)
MIC (Streptococcus bovis): ≤ 0.06 µg/mL
MIC (Pasteurella hemolytica; strain B77-19): ≤ 0.06 µg/mL
MIC (Pasteurella hemolytica; strain UC6531): ≤ 0.06 µg/mL
MIC (Pasteurella hemolytica; strain UC6532): ≤ 0.06 µg/mL
ED50 (P. hemolytica; [1]): 0.3 mg/kg
ED50 (P. hemolytica; [2]): 0.6 mg/kg
MIC (Strep. faecalis; strain ATCC29212): > 32 µg/mL
MIC (Strep. faecalis; strain UC241): > 32 µg/mL
MIC (Strep. faecalis; strain UC694): > 32 µg/mL
MIC (Salmonella choleraesuis; [3]): 0.5 µg/mL (≈ 1.21 µM)
MIC (Salmonella choleraesuis; [4]): 1 µg/mL (≈ 2.42 µM)
MIC (Streptococcus uberis; strain UC3946): ≤ 0.06 µg/mL
MIC (Streptococcus uberis; strain UC6159): 16 µg/mL (≈ 38.7 µM)
MIC (Salmonella typhimurium; [5]): 0.13 µg/mL (≈ 0.314 µM)
MIC (Salmonella typhimurium; [6]): 0.13 µg/mL (≈ 0.314 µM)
MIC (Streptococcus suis; [7]): ≤ 0.06 µg/mL
MIC (Streptococcus suis; strain 650-2): ≤ 0.06 µg/mL
MIC (Pseudomonas aeruginosa): > 32 µg/mL
MIC (Staphylococcus aureus; strain ATCC25923): 4 µg/mL (≈ 9.67 µM)
MIC (Staphylococcus aureus; strain UC6093): 16 µg/mL (≈ 38.7 µM)
MIC (Staphylococcus aureus; strain UC6097): 16 µg/mL (≈ 38.7 µM)
MIC (Staphylococcus aureus; strain UC6688): > 32 µg/mL
MIC (Staphylococcus aureus; strain UC9201): 16 µg/mL (≈ 38.7 µM)
